The record followed here is patent US8410288B2, “Polymorphs of Saxagliptin hydrochloride and processes for preparing them” (Teva Pharmaceutical Industries Ltd., priority 2010, dated 2013).

Structures are written as SMILES. Where a name gives a salt, the structure may show the parent alone.

Common to all, as to assay type: physicochemical
Data set [1] can be described thus: Particle morphology (SEM), filterability and powder flowability. To be noted: small plate to rod-shaped particles. An excerpt:
Equipment: Jeol JSM-5800 scanning microscope, Sputtered with gold by Edwards S150 sputter coater

A short description of data set [2]: Tapped density measurement. The conditions noted are these: 450 mg sample; for tapped density: 10 ml graduated cylinder, tapped 200 times; for volume of sample after tapping: 10 ml measuring flask, tapped 200 times with equal force. How it is done:
Samples were tapped the same number of times (200 times) with equal force. Volume of each sample was recorded: (1.4 ml for Form K; 1.6 ml for H2-1).

The nature of data set [3]: Solubility measurement (time to clear solution in distilled water). To be noted: compared to other solid state forms of Saxagliptin hydrochloride. How it is done:
Equal mass of samples was suspended in equal volume of distilled water. Suspensions were slightly mixed, time was recorded at the moment of clear solution appearance.

As for `N#C[C@@H]1C[C@@H]2C[C@@H]2N1C(=O)[C@@H](N)C12CC3CC(CC(O)(C3)C1)C2` [form D, Saxagliptin hydrochloride], the “filterability and powder flowability” value in data set [1] was “good filterability and powder flowability properties”. Regarding `N#C[C@@H]1C[C@@H]2C[C@@H]2N1C(=O)[C@@H](N)C12CC3CC(CC(O)(C3)C1)C2` [form K, Saxagliptin hydrochloride], in data set [2] (hydrochloride), the tapped density result is listed as “about 0.32 g/ml” and the “volume of sample after tapping” value was found to be 1.4 mL.

Turning to `N#C[C@@H]1C[C@@H]2C[C@@H]2N1C(=O)[C@@H](N)C12CC3CC(CC(O)(C3)C1)C2` [form H2-1, Saxagliptin hydrochloride dihydrate, reference compound], in data set [2] (hydrochloride dihydrate), the tapped density entry is recorded as “about 0.28 g/ml” and the “volume of sample after tapping” value was 1.6 mL. Consider `N#C[C@@H]1C[C@@H]2C[C@@H]2N1C(=O)[C@@H](N)C12CC3CC(CC(O)(C3)C1)C2` [form Z, Saxagliptin hydrochloride], for which, in data set [3], the dissolution rate result is “high dissolution rate”.
